Like-named read-outs stand apart in the source and are kept apart here.
Test system: P. aeruginosa isolates
Assay: Phase 2 study: MIC of P. aeruginosa isolates to levofloxacin
Format: cell-based
Conditions: Pseudomonas aeruginosa
Procedure: Efficacy was evaluated by microbiologic assessment of sputum samples, time to need for anti-pseudomonal antimicrobials, the Cystic Fibrosis Questionaire-Revised (CFQ-R), and pulmonary function tests. […] Pair-wise comparisons between all the treatment arms were conducted as secondary analyses.

C[C@H]1COc2c(N3CCN(C)CC3)c(F)cc3c(=O)c(C(=O)O)cn1c23 [Levofloxacin, levofloxacin]
MIC90 (672 h, MITT, combined 240 mg QD and BID, Day 28, read-out: Highest MIC, MIC90): 32 µg/mL
MIC50 (672 h, MITT, combined 240 mg QD and BID, Day 28, read-out: MIC50 (all organisms)): 4 µg/mL
MIC90 (672 h, MITT, combined 240 mg QD and BID, Day 28, read-out: MIC90 (all organisms)): 16 µg/mL
MIC50 (672 h, Table 14, EE, 120 mg QD, Day 28, read-out: MIC50 (all organisms)): 8 µg/mL
MIC90 (672 h, Table 14, EE, 120 mg QD, Day 28, read-out: MIC90 (all organisms)): 32 µg/mL
MIC50 (672 h, Table 14, EE, 240 mg BID, Day 28, read-out: MIC50 (all organisms)): 8 µg/mL
MIC90 (672 h, Table 14, EE, 240 mg BID, Day 28, read-out: MIC90 (all organisms)): 32 µg/mL
MIC50 (672 h, Table 14, EE, 240 mg QD, Day 28, read-out: MIC50 (all organisms)): 8 µg/mL
MIC90 (672 h, Table 14, EE, 240 mg QD, Day 28, read-out: MIC90 (all organisms)): 16 µg/mL
MIC50 (672 h, Table 14, EE, combined 240 mg QD and BID, Day 28, read-out: MIC50 (all organisms)): 8 µg/mL
MIC90 (672 h, Table 14, EE, combined 240 mg QD and BID, Day 28, read-out: MIC90 (all organisms)): 32 µg/mL
MIC (672 h, read-out: Highest MIC to levofloxacin, mean (SD), MITT, 120 mg QD, Day 28): 12.7 µg/mL
MIC (672 h, read-out: Highest MIC to levofloxacin, mean (SD), MITT, 240 mg BID, Day 28): 17.9 µg/mL
MIC (672 h, read-out: Highest MIC to levofloxacin, mean (SD), MITT, 240 mg QD, Day 28): 9.17 µg/mL
MIC (672 h, read-out: Highest MIC to levofloxacin, mean (SD), MITT, combined 240 mg QD and BID, Day 28): 13.5 µg/mL
MIC (672 h, read-out: MIC to levofloxacin (all organisms), mean (SD), EE, 120 mg QD, Day 28): 8.9 µg/mL
MIC (672 h, read-out: MIC to levofloxacin (all organisms), mean (SD), EE, 240 mg BID, Day 28): 10.1 µg/mL
MIC (672 h, read-out: MIC to levofloxacin (all organisms), mean (SD), EE, 240 mg QD, Day 28): 6 µg/mL
MIC (672 h, read-out: MIC to levofloxacin (all organisms), mean (SD), EE, combined 240 mg QD and BID, Day 28): 8 µg/mL
MIC (672 h, read-out: MIC to levofloxacin (all organisms), mean (SD), MITT, 120 mg QD, Day 28): 8.8 µg/mL
MIC (672 h, read-out: MIC to levofloxacin (all organisms), mean (SD), MITT, 240 mg BID, Day 28): 9.9 µg/mL
MIC (672 h, read-out: MIC to levofloxacin (all organisms), mean (SD), MITT, 240 mg QD, Day 28): 5.9 µg/mL
MIC (672 h, read-out: MIC to levofloxacin (all organisms), mean (SD), MITT, combined 240 mg QD and BID, Day 28): 7.9 µg/mL
MIC (672 h, read-out: MIC to levofloxacin (all organisms), mean (SD), Table 14, EE, 120 mg QD, Day 28): 12.9 µg/mL
MIC (672 h, read-out: MIC to levofloxacin (all organisms), mean (SD), Table 14, EE, 240 mg BID, Day 28): 18 µg/mL
MIC (672 h, read-out: MIC to levofloxacin (all organisms), mean (SD), Table 14, EE, 240 mg QD, Day 28): 9.42 µg/mL
MIC (672 h, read-out: MIC to levofloxacin (all organisms), mean (SD), Table 14, EE, combined 240 mg QD and BID, Day 28): 13.6 µg/mL
MIC50 (EE and MITT, 120 mg QD, baseline, read-out: MIC50 for P. aeruginosa isolates): 8 µg/mL
MIC90 (EE and MITT, 120 mg QD, baseline, read-out: MIC90 for P. aeruginosa isolates): 32 µg/mL
MIC50 (EE and MITT, 240 mg BID, baseline, read-out: MIC50 for P. aeruginosa isolates): 6 µg/mL
MIC90 (EE and MITT, 240 mg BID, baseline, read-out: MIC90 for P. aeruginosa isolates): 32 µg/mL
MIC50 (EE and MITT, 240 mg QD, baseline, read-out: MIC50 for P. aeruginosa isolates): 4 µg/mL
MIC90 (EE and MITT, 240 mg QD, baseline, read-out: MIC90 for P. aeruginosa isolates): 32 µg/mL
MIC (all patients, baseline (n=592 isolates), read-out: Median baseline MIC of all isolates): 4 µg/mL
MIC90 (read-out: Baseline MIC90 of all isolates): 16 µg/mL
MIC (read-out: Highest MIC to levofloxacin, mean (SD), MITT, 120 mg QD, Day 1): 14.3 µg/mL
MIC (read-out: Highest MIC to levofloxacin, mean (SD), MITT, 240 mg BID, Day 1): 11.4 µg/mL
MIC (read-out: Highest MIC to levofloxacin, mean (SD), MITT, 240 mg QD, Day 1): 9.06 µg/mL
MIC (read-out: Highest MIC to levofloxacin, mean (SD), MITT, combined 240 mg QD and BID, Day 1): 10.2 µg/mL
MIC (read-out: MIC to levofloxacin (all organisms), mean (SD), EE, 120 mg QD, Day 1): 11.5 µg/mL
MIC (read-out: MIC to levofloxacin (all organisms), mean (SD), EE, 240 mg BID, Day 1): 6.8 µg/mL
MIC (read-out: MIC to levofloxacin (all organisms), mean (SD), EE, 240 mg QD, Day 1): 6.3 µg/mL
MIC (read-out: MIC to levofloxacin (all organisms), mean (SD), EE, combined 240 mg QD and BID, Day 1): 6.5 µg/mL
MIC (read-out: MIC to levofloxacin (all organisms), mean (SD), MITT, 120 mg QD, Day 1): 11 µg/mL
MIC (read-out: MIC to levofloxacin (all organisms), mean (SD), MITT, 240 mg BID, Day 1): 6.8 µg/mL
MIC (read-out: MIC to levofloxacin (all organisms), mean (SD), MITT, 240 mg QD, Day 1): 6.1 µg/mL
MIC (read-out: MIC to levofloxacin (all organisms), mean (SD), MITT, combined 240 mg QD and BID, Day 1): 6.4 µg/mL
MIC (read-out: MIC to levofloxacin (all organisms), mean (SD), Table 14, EE, 120 mg QD, Day 1): 15 µg/mL
MIC (read-out: MIC to levofloxacin (all organisms), mean (SD), Table 14, EE, 240 mg BID, Day 1): 11.6 µg/mL
MIC (read-out: MIC to levofloxacin (all organisms), mean (SD), Table 14, EE, 240 mg QD, Day 1): 9.35 µg/mL
MIC (read-out: MIC to levofloxacin (all organisms), mean (SD), Table 14, EE, combined 240 mg QD and BID, Day 1): 10.5 µg/mL
